Data on 1 substance can be found in patent US8110657B2, “Polypeptides and polynucleotides for enhancing immune reactivity to HER-2 protein” (priority 1999, dated 2012).

In this experiment the test system is autologous targets. Put plainly: CTL assay (chromium release). The format is cell-based. Conditions: two in vitro re-stimulations, IL-2 added.

Consider “DW2: amino acids 391-399 of the HER-2 protein, T cell epitope (PLQPEQLQV; UniProt P04626 391-399, looked up, fragment)”, for which the “CTL lysis of targets” value is given as “able to specifically lyse autologous targets in a dose dependent manner”.
